Assay: xn = mol fraction of the nth substance listed
Settings: 100 kPa, x2 = 0

CCO + CCCC[n+]1ccn(C)c1.O=S(=O)([N-]S(=O)(=O)C(F)(F)F)C(F)(F)F
Settings | viscosity [mPa·s]
293 K | 1.19
293.3 K | 1.18
293.61 K | 1.18
293.91 K | 1.17
294.21 K | 1.17
294.52 K | 1.16
294.82 K | 1.16
295.12 K | 1.15
295.42 K | 1.15
296.03 K | 1.14
296.33 K | 1.13
296.64 K | 1.13
297.24 K | 1.12
298.45 K | 1.09
298.76 K | 1.09
299.06 K | 1.08
299.36 K | 1.08
299.67 K | 1.07
299.97 K | 1.07
300.27 K | 1.06
300.58 K | 1.06
300.88 K | 1.05
301.18 K | 1.05
301.79 K | 1.04
302.09 K | 1.03
302.39 K | 1.03
303 K | 1.02
303.61 K | 1.01
303.91 K | 1
304.52 K | 0.99
304.82 K | 0.99
305.12 K | 0.98
305.42 K | 0.98
305.73 K | 0.97
306.33 K | 0.96
306.64 K | 0.96
306.94 K | 0.95
307.24 K | 0.95
307.55 K | 0.94
307.85 K | 0.94
308.15 K | 0.93
308.45 K | 0.93
308.76 K | 0.92
309.06 K | 0.92
309.36 K | 0.91
309.97 K | 0.9
310.27 K | 0.9
310.88 K | 0.89
311.18 K | 0.88
311.48 K | 0.88
311.79 K | 0.87
312.09 K | 0.87
312.39 K | 0.86
313.91 K | 0.84
314.21 K | 0.84
314.52 K | 0.83
314.82 K | 0.83
315.12 K | 0.82
315.42 K | 0.82
315.73 K | 0.81
316.03 K | 0.81
316.64 K | 0.8
316.94 K | 0.8
317.24 K | 0.79
317.55 K | 0.79
317.85 K | 0.78
318.15 K | 0.78
318.76 K | 0.77
319.06 K | 0.77
319.97 K | 0.75
320.27 K | 0.75
320.58 K | 0.74
321.18 K | 0.73
321.79 K | 0.73
322.09 K | 0.72
322.39 K | 0.72
322.7 K | 0.71
323 K | 0.71

Source: a compilation of properties of binary mixtures (doi:10.1016/j.molliq.2018.02.064)
